Laboratory results taken from ChEMBL document CHEMBL1131716, “Heterocycle-peptide hybrid compounds. Aminotriazole-containing agonists of the thrombin receptor (PAR-1)” (Bioorg Med Chem Lett, 1999).
Where a SMILES comes first, the peptide text is derived from it. [ ]: non-standard residue; d: D form. The star is where a group is joined. Cha = N[C@@H](CC1CCCCC1)C(=O)O; Nicotinoyl = O=C(c1cccnc1)*; 3Abz = Nc1cccc(C(=O)O)c1; 4Abz = Nc1ccc(C(=O)O)cc1; βAla = NCCC(=O)O

Assays:
[1] = target: T1, Proteinase-activated receptor 1 (Homo sapiens, UniProt P25116); assay: Inhibition of [3H]S-(p-F-Phe)-Har-L-Har-KY-NH2 binding to thrombin receptor (PAR-1) on membranes from CHRF cells; assay type: cell membranes
T1 sequence (P25116 whole entry): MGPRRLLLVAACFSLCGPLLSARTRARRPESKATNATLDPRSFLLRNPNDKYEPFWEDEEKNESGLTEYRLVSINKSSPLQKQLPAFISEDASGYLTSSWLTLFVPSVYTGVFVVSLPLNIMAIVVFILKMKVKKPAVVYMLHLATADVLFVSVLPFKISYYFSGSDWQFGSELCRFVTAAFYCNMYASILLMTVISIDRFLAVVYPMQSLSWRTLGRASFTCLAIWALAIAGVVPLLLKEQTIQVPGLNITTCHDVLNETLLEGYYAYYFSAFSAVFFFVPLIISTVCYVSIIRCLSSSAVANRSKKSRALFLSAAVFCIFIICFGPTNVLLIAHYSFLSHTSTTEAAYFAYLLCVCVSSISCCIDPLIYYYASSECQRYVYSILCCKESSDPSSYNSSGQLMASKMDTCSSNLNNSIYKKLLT

Homo sapiens = species: Homo sapiens; assay: Antagonist activity by using human gel-filtered platelet aggregation; assay type: functional
[2] = target: T1, Proteinase-activated receptor 1; assay: Inhibition of [3H]S-(p-F-Phe)-Har-L-Har-KY-NH2 binding to Thrombin receptor 1 (PAR-1) on membranes from CHRF cells; assay type: cell membranes
[3] = target: T2, Proteinase-activated receptor 1 (Homo sapiens) (UniProt P25116); assay: Evaluated for activation of human platelet aggregation (gel-filtered platelets) induced by alpha thrombin at 50 uM; assay type: functional
T2 sequence (whole entry): T1 sequence (P25116 whole entry)

Compound | IC50 [1] [µM] | percent activation of platelet aggregation [3] [%] | further results
N=C(N)NCCC[C@H](NC(=O)[C@H](CC1CCCCC1)NC(=O)c1csnn1)C(=O)N[C@@H](Cc1ccccc1)C(N)=O | 9.4 |  | 
N=C(N)NCCC[C@H](NC(=O)[C@H](CC1CCCCC1)NC(=O)c1n[nH]c(N)n1)C(=O)N[C@@H](Cc1ccccc1)C(N)=O | 1.9 |  | 
N=C(N)NCCC[C@H](NC(=O)[C@H](CC1CCCCC1)NC(=O)c1n[nH]c(NC(=O)/C(F)=C/c2ccccc2)n1)C(=O)N[C@@H](Cc1ccccc1)C(N)=O |  |  | IC50 (Homo sapiens): 28 µM
N=C(N)NCCC[C@H](NC(=O)[C@H](Cc1ccccc1)NC(=O)c1ccc2[nH]cnc2c1)C(=O)N[C@@H](Cc1ccccc1)C(N)=O | 4 |  | 
N=C(N)NCCC[C@H](NC(=O)[C@H](CC1CCCCC1)NC(=O)c1ccc(N)nc1)C(=O)N[C@@H](Cc1ccccc1)C(N)=O | 2 |  | 
N=C(N)NCCC[C@H](NC(=O)[C@H](Cc1ccccc1)NC(=O)c1nnc(N)[nH]1)C(=O)N[C@@H](Cc1ccccc1)C(N)=O | 2 |  | 
COc1ccc(/C=C/C(=O)Nc2n[nH]c(C(=O)N[C@@H](CC3CCCCC3)C(=O)N[C@@H](CCCN=C(N)N)C(=O)N[C@@H](Cc3ccccc3)C(N)=O)n2)cc1 |  |  | IC50 [2]: 4 µM
NCCC(=O)N[C@@H](CC1CCCCC1)C(=O)N[C@@H](CCCN=C(N)N)C(=O)N[C@@H](Cc1ccccc1)C(N)=O (H-[βAla][Cha]RF-NH2) |  | 30 | 
N=C(N)NCCC[C@H](NC(=O)[C@H](CC1CCCCC1)NC(=O)c1cc2ccccc2[nH]1)C(=O)N[C@@H](Cc1ccccc1)C(N)=O | 56 | 21 | 
N=C(N)NCCC[C@H](NC(=O)[C@H](CC1CCCCC1)NC(=O)c1n[nH]c(NC(=O)/C=C/c2ccccc2Cl)n1)C(=O)N[C@@H](Cc1ccccc1)C(N)=O |  |  | IC50 (Homo sapiens): 3.6 µM; IC50 [2]: 1.4 µM
N=C(N)NCCC[C@H](NC(=O)[C@H](CC1CCCCC1)NC(=O)c1n[nH]c(NC(=O)/C=C/c2c[nH]c3ccccc23)n1)C(=O)N[C@@H](Cc1ccccc1)C(N)=O | 100 |  | 
N=C(N)NCCC[C@H](NC(=O)[C@H](CC1CCCCC1)NC(=O)c1n[nH]c(NC(=O)/C=C/c2ccccc2)n1)C(=O)N[C@@H](Cc1ccccc1)C(N)=O |  |  | IC50 (Homo sapiens): 9.8 µM; IC50 [2]: 6.4 µM
N=C(N)NCCC[C@H](NC(=O)[C@H](CC1CCCCC1)NC(=O)/C=C/c1cccnc1)C(=O)N[C@@H](Cc1ccccc1)C(N)=O | 5.5 |  | 
N=C(N)NCCC[C@H](NC(=O)[C@H](CC1CCCCC1)NC(=O)c1n[nH]c(NC(=O)/C=C/c2ccc(C(F)(F)F)cc2)n1)C(=O)N[C@@H](Cc1ccccc1)C(N)=O |  |  | IC50 [2]: 30 µM
CC(C)C[C@H](NC(=O)[C@H](CC(C)C)NC(=O)[C@H](Cc1ccccc1)NC(=O)[C@@H](N)CO)C(=O)N[C@@H](CCCN=C(N)N)C(=O)N[C@@H](CC(N)=O)C(N)=O | 0.55 |  | 
N=C(N)NCCC[C@H](NC(=O)[C@H](CC1CCCCC1)NC(=O)c1n[nH]c(NC(=O)/C=C/c2cccc(Cl)c2)n1)C(=O)N[C@@H](Cc1ccccc1)C(N)=O |  |  | IC50 [2]: 15 µM
N=C(N)NCCC[C@H](NC(=O)[C@H](CC1CCCCC1)NC(=O)c1n[nH]c(NC(=O)/C=C/c2cccs2)n1)C(=O)N[C@@H](Cc1ccccc1)C(N)=O | 4.4 |  | 
N=C(N)NCCC[C@H](NC(=O)[C@H](CC1CCCCC1)NC(=O)c1cccnc1N)C(=O)N[C@@H](Cc1ccccc1)C(N)=O | 2.3 |  | 
N=C(N)NCCC[C@H](NC(=O)[C@H](CC1CCCCC1)NC(=O)C1=COc2ccccc2O1)C(=O)N[C@@H](Cc1ccccc1)C(N)=O | 16 | < 20 | 
N=C(N)NCCC[C@H](NC(=O)[C@H](CC1CCCCC1)NC(=O)c1ccc2c(c1)-c1ccccc1-2)C(=O)N[C@@H](Cc1ccccc1)C(N)=O | 2.4 |  | 
N=C(N)NCCC[C@H](NC(=O)[C@H](CC1CCCCC1)NC(=O)c1nccnc1N)C(=O)N[C@@H](Cc1ccccc1)C(N)=O | 8.5 |  | 
C[C@H](NC(=O)c1n[nH]c(N)n1)C(=O)N[C@@H](CCCN=C(N)N)C(=O)N[C@@H](Cc1ccccc1)C(N)=O | 46 | < 20 | 
N=C(N)NCCC[C@H](NC(=O)[C@H](CC1CCCCC1)NC(=O)c1cccnc1Cl)C(=O)N[C@@H](Cc1ccccc1)C(N)=O | 7.6 | < 20 | 
N=C(N)NCCC[C@H](NC(=O)[C@H](CC1CCCCC1)NC(=O)C1C=CC=NC1=O)C(=O)N[C@@H](Cc1ccccc1)C(N)=O (some centres not stated) | 16 | 26 | 
N=C(N)NCCC[C@H](NC(=O)[C@H](CC1CCCCC1)NC(=O)c1cc2ccccc2o1)C(=O)N[C@@H](Cc1ccccc1)C(N)=O |  |  | IC50 [2]: 3 µM

Compound | IC50 [1] [µM] | percent activation of platelet aggregation [3] [%] | further results
N=C(N)NCCC[C@H](NC(=O)[C@H](CC1CCCCC1)NC(=O)c1nnc(N)[nH]1)C(=O)N[C@H](C(N)=O)c1ccccc1 | 7 |  | 
C[C@H](NC(=O)[C@H](CC1CCCCC1)NC(=O)c1n[nH]c(N)n1)C(=O)N[C@@H](Cc1ccccc1)C(N)=O | 18 | < 20 | 
N=C(N)NCCC[C@H](NC(=O)[C@H](CC1CCCCC1)NC(=O)c1n[nH]c(NC(=O)/C=C/c2cccc3ccccc23)n1)C(=O)N[C@@H](Cc1ccccc1)C(N)=O | 16 |  | IC50 (Homo sapiens): 5.4 µM
N=C(N)NCCC[C@H](NC(=O)[C@H](CC1CCCCC1)NC(=O)c1cnc(Cl)c(Cl)c1)C(=O)N[C@@H](Cc1ccccc1)C(N)=O |  | 32 | IC50 [2]: 2.6 µM
N=C(N)NCCC[C@H](NC(=O)[C@H](CC1CCCCC1)NC(=O)c1nnc(N)[nH]1)C(=O)N[C@@H](Cc1cccs1)C(N)=O | 4 |  | 
N=C(N)NCCC[C@H](NC(=O)[C@H](CC1CCCCC1)NC(=O)c1cc(=O)c2ccccc2o1)C(=O)N[C@@H](Cc1ccccc1)C(N)=O | 1.6 |  | 
N=C(N)NCCC[C@H](NC(=O)[C@H](CC1CCCCC1)NC(=O)c1ccccn1)C(=O)N[C@@H](Cc1ccccc1)C(N)=O | 4.4 |  | 
N=C(N)NCCC[C@H](NC(=O)[C@H](CC1CCCCC1)NC(=O)c1ccc(Cl)nc1)C(=O)N[C@@H](Cc1ccccc1)C(N)=O | 2.4 |  | 
N=C(N)NCCC[C@H](NC(=O)[C@H](CC1CCCCC1)NC(=O)c1ccc(N)cc1)C(=O)N[C@@H](Cc1ccccc1)C(N)=O (H-[4Abz][Cha]RF-NH2) | 2.9 | 40 | 
N=C(N)NCCC[C@H](NC(=O)[C@H](CC1CCCCC1)NC(=O)c1ccc[nH]1)C(=O)N[C@@H](Cc1ccccc1)C(N)=O | 10 | 55 | 
N=C(N)NCCC[C@H](NC(=O)[C@H](CC1CCCCC1)NC(=O)/C=C/c1ccccc1)C(=O)N[C@@H](Cc1ccccc1)C(N)=O | 5 | 20 | 
N=C(N)NCCC[C@H](NC(=O)[C@H](CC1CCCCC1)NC(=O)c1ccncc1)C(=O)N[C@@H](Cc1ccccc1)C(N)=O | 7 | 26 | 
N=C(N)NCCC[C@H](NC(=O)[C@H](CC1CCCCC1)NC(=O)c1n[nH]c(NC(=O)/C=C/c2ccccc2[N+](=O)[O-])n1)C(=O)N[C@@H](Cc1ccccc1)C(N)=O | 1.6 |  | 
N=C(N)NCCC[C@H](NC(=O)[C@H](CC1CCCCC1)NC(=O)c1ccc(-c2ccccc2)cc1)C(=O)N[C@@H](Cc1ccccc1)C(N)=O | 13 | 56 | 
N=C(N)NCCC[C@H](NC(=O)[C@H](CC1CCCCC1)NC(=O)c1n[nH]c(N)n1)C(=O)N[C@@H](Cc1c[nH]cn1)C(N)=O | 27 | < 20 | 
N=C(N)NCCC[C@H](NC(=O)[C@H](CC1CCCCC1)NC(=O)c1cccnc1)C(=O)N[C@@H](Cc1ccccc1)C(N)=O (Nicotinoyl-[Cha]-Arg-Phe-NH2) | 1.3 |  | 
N=C(N)NCCC[C@H](NC(=O)[C@H](CC1CCCCC1)NC(=O)c1cccc(N)c1)C(=O)N[C@@H](Cc1ccccc1)C(N)=O (H-[3Abz][Cha]RF-NH2) | 2 |  | 
N=C(N)NCCC[C@H](NC(=O)[C@H](CC1CCCCC1)NC(=O)c1cnc2ccccc2n1)C(=O)N[C@@H](Cc1ccccc1)C(N)=O | 3.1 |  | 
N=C(N)NCCC[C@H](NC(=O)[C@H](CC1CCCCC1)NC(=O)c1n[nH]c(NC(=O)/C=C/c2ccc(Cl)cc2)n1)C(=O)N[C@@H](Cc1ccccc1)C(N)=O |  |  | IC50 [2]: 1.4 µM
N=C(N)NCCC[C@H](NC(=O)[C@H](CC1CCCCC1)NC(=O)CCN)C(=O)N[C@@H](Cc1ccccc1)C(N)=O (H-[βAla][Cha]RF-NH2) | 9 |  | 
N=C(N)NCCC[C@H](NC(=O)[C@H](CC1CCCCC1)NC(=O)c1n[nH]c(NC(=O)/C=C/c2cccc([N+](=O)[O-])c2)n1)C(=O)N[C@@H](Cc1ccccc1)C(N)=O |  |  | IC50 [2]: 8.5 µM
N=C(N)NCCC[C@H](NC(=O)[C@H](CC1CCCCC1)NC(=O)c1cc2ccccc2s1)C(=O)N[C@@H](Cc1ccccc1)C(N)=O | 2.3 |  | 
N=C(N)NCCC[C@H](NC(=O)[C@H](CC1CCCCC1)NC(=O)c1n[nH]c(NC(=O)/C=C/c2ccc(F)cc2)n1)C(=O)N[C@@H](Cc1ccccc1)C(N)=O |  |  | IC50 [2]: 1.2 µM
NCCCC[C@H](NC(=O)[C@H](CC1CCCCC1)NC(=O)c1n[nH]c(N)n1)C(=O)N[C@@H](Cc1ccccc1)C(N)=O | 5.4 |  | 
N=C(N)NCCC[C@H](NC(=O)[C@H](CC1CCCCC1)NC(=O)c1ccoc1)C(=O)N[C@@H](Cc1ccccc1)C(N)=O | 25 | 38 | 
